Measurements taken from patent publication US20130281313A1, “PROGNOSTIC AND/OR PREDICTIVE BIOMARKERS AND BIOLOGICAL APPLICATIONS THEREOF” (INSTITUT GUSTAVE ROUSSY, priority 2010, published 2013).

How the values were obtained:
Assay type in all cases: cell-based, human
[1] = system: A549 cells; assay: Intracellular levels of CDDP in cell lysates; settings: 24 h, 25 μM CDDP alone or with PN and/or GSH, normalized to protein content
Procedure: (E,F) Intracellular levels of CDDP (normalized to protein content) in lysates from untransfected A549 cells (D) or A549 cells transfected with a PDXK-targeting siRNA (E), treated for 24 h with 25 μM CDDP alone or in combination with PN and/or GSH. Mean±SEM (n=6). *=p<0.05 (Studen's t test), as compared to untransfected (D) or siUNR transfected (E) cells treated with CDDP only. n.s.=non significant (Student's t test), as compared to cells treated with the same concentration of GSH (D) or to siPDXK-transfected cells treated with CDDP only (E).

[2] = system: A549 cells; assay: Cytofluorometric assessment of cell death (DiOC6(3)/PI co-staining); settings: A549 cells; for apoptosis-inducing effect of CDDP (DiOC6(3)/PI co-staining or DNA loss, sub-G1 peak): CDDP irrespective of the presence of PN
Procedure: Unless otherwise specified, chemicals were purchased from Sigma-Aldrich (St. Louis, USA), culture media and supplements for cell culture from Gibco-Invitrogen (Carlsbad, USA) and plasticware from Corning (Corning, USA). […] Orlistat (Xenical®) was obtained from Roche (Basel, Switzerland). […] Undissolved material was removed by two sequential rounds of centrifugation at 12,000 G (5 min, room temperature, RT), supernatants were collected and stored at −80° C. under protection from light until use. In low-throughput experiments, all cell lines were treated with 2.5 mM pyridoxine (PN), exception made for A549 cells that received 5 mM PN.
To avoid depleting the siRNA library of selected sequences, siRNAs for validation experiments were purchased as custom molecules from Sigma-Aldrich. For low-throughput experiments, (see below for the transfection protocols employed in the siRNA screen), siRNA were transfected in A549 cells with Oligofectamine™ reagent (Invitrogen), following the manufacturer's instructions. Transfection with a non-targeting siRNA (siUNR) was employed as a negative control condition. Forty-eight hours after transfection, siRNA-mediated target downregulation was assessed by immunoblotting (see below).
All cytofluorometric determinations were carried out a FACSCalibur or a FACScan cytofluorometer (BD Biosciences, San Jose, USA) equipped with a 70 μm nozzle.
(§1) First line statistical analysis of cytofluorometric results was performed by using the CellQuest™ software (BD Biosciences), by gating on the events characterized by normal forward scatter and side scatter parameters. Apoptosis- and cell cycle-related data were further analyzed with Microsoft Excel (Microsoft Co., Redmond, USA) and statistical significance was assessed by means of two-tailed Student's t test (p<0.05).

[3] = system: A549 cells; assay: Targeted metabolomic studies (ATP, ADP, AMP, GSH; RRLC-MS); settings: A549 cells incubated for 24 h with 5 mM GSH
Procedure: A549 cells were left untreated or treated with 25 μM CDDP alone or in combination with 5 mM PN, for 24 h. Thereafter, both attached (living) and detached (dying/dead) cells were harvested, washed once in cold PBS and pelleted (800 G for 5 min). Pellets were resuspended in 200 μL deionized water, briefly vortexed and sonicated. 800 μl ice-cold methanol was added, and samples were kept in ice for 15 min, vortexed and centrifuged at 13,000 G for 10 min at 4° C. Supernatants were dried in a SpeedVac drier (Thermo Scientific-Pierce) and stored at −80° C. until analysis. Pellets were resuspended in 150 μL 98:2 water/acetonitrile immediately before analytical determinations (see below).
ATP, ADP, AMP and GSH were quantified on a Rapid Resolution Liquid Chromatography (RRLC) 1200SL system coupled to a 6410 Triple Quadripole (QQQ) mass spectrometer (both from Agilent Technologies). For nucleotides, RRLC was performed on 150×2.1 mm, 3.5 μM Eclipse Plus columns (Agilent Technologies) with water containing 4 mM dimethylhexylamine (DMHA) plus 0.01% (v/v) acetic acid in channel A and acetonitrile in channel B, in gradient mode at a flow rate of 0.2 mL/min: t=0 min 2% B; t=9 min 32% B; t=10 min 95% B; T=12 min 95% B, re-equilibration time=6 min. Mass spectrometry was performed in positive electrospray ionization mode at +4 kV on the QQQ system operating in MRM mode. MRM transitions were optimized with direct infusions of ATP, ADP, and AMP standards with direct infusion, and four transitions were recorded for each compounds. Parent ions were adduct ions of DMHA and also proton adducts:
For GSH, RRLC was performed on a 150×2.1 mm, 3.5 μM Stable Bond AQ column (Agilent Technologies) with water containing 0.2% (v/v) acetic acid in channel A and methanol in channel B, in gradient mode at a flow rate of 0.3 mL/min: t=0 min 2% B; t=8 min 95% B; t=9 min 95% B; re-equilibration time=6 min. Mass spectrometry was performed as above. MRM transitions were optimized with direct infusion of GSH standards.
Data collection and analysis were performed with the MassHunter software (Agilent Technologies).

[4] = system: A549 cells; assay: Cell cycle distribution (PI staining, cytofluorometry); settings: 10 μM CDDP alone or with PN and/or NAC
Procedure: To measure apoptosis-related parameters, living cells were labeled for 30 min at +37° C. with 40 nM 3,3′dihexyloxalocarbocyanine iodide (DiOC6(3), from Molecular Probes-Invitrogen, Eugene, USA), which quantifies the mitochondrial transmembrane potential (Δψm), plus 1 μg/mL propidium iodide (PI), which only accumulates in cells with ruptured plasma membrane {Galluzzi, 2009; Galluzzi, 2008; Galluzzi, 2007}. To assess cell cycle distribution, cells were collected, fixed by gentle vortexing in ice-cold 80% (v/v) ethanol (Carlo Erba Reagents, Milano, Italy) and stained with 50 μg/mL PI in 0.1% (w/v) D-glucose in PBS supplemented with 1 μg/mL (w/v) RNAse A {Mondragon, 2009; Mouhamad, 2007}. All cytofluorometric determinations were carried out a FACSCalibur or a FACScan cytofluorometer (BD Biosciences, San Jose, USA) equipped with a 70 μm nozzle.
as §1

SMILES | intracellular accumulation of CDDP [1] | protection against the cytotoxic effect of CDDP plus PN ([2]; 25 or 75 μM CDDP plus PN) | apoptosis-inducing effect of CDDP (DiOC6(3)/PI co-staining or DNA loss, sub-G1 peak) [2] | intracellular GSH levels upon extracellular GSH [3] | cell cycle arrest induced by CDDP [4] | protection against CDDP, COX inhibition with sodium azide combined with TP53 inhibition with cyclic pifithrin-α ([2]; followed by CDDP, DiOC6(3)/PI co-staining)
N[C@@H](CCC(=O)N[C@@H](CS)C(=O)NCC(=O)O)C(=O)O [GSH, glutathione] | strongly inhibited the accumulation of CDDP within the cells | protected cells against the cytotoxic effect of CDDP plus PN | blocked the apoptosis-inducing effect of CDDP | had no significant impact on intracellular GSH levels | – | –
CC(=O)N[C@@H](CS)C(=O)O [NAC, N-acetylcysteine] | – | – | blocked the apoptosis-inducing effect of CDDP | – | failed to reverse the cell cycle arrest induced by CDDP | –
Cc1ccc(-c2cn3c4c(sc3n2)CCCC4)cc1 [cyclic pifithrin-α] | – | – | – | – | – | synergistic protection against CDDP
